These results are taken from paper PMC4669708 (Cell Death & Disease, 2015).

The target of one test is LCK (Homo sapiens, UniProt P06239). Kind of test: c-ponatinib pulldown LC-MS/MS. Format: binding. In outline: (§1)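 Whole cell lysate (10 mg) was first passed over immobilized c-ponatinib, and bound proteins were eluted. After reduction, alkylation and tryptic digestion, the peptides were analysed by LC-MS/MS. Finally, binding specificity was assigned by a combined P-value, with or without free-compound competition.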
Chain of LCK (P06239 whole entry): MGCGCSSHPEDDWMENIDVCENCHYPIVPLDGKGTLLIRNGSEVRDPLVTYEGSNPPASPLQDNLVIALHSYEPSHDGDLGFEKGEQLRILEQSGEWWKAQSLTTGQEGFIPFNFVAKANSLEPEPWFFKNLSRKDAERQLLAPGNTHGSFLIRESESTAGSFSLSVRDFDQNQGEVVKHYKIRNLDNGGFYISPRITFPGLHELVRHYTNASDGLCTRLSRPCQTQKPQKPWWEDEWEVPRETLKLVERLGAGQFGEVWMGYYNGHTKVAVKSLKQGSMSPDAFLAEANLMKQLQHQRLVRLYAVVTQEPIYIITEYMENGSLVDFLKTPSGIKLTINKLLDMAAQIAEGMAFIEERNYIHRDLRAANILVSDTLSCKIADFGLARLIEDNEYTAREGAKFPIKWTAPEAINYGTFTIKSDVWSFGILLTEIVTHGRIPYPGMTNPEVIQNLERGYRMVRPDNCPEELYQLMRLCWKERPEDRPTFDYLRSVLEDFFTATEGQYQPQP

Another test concerns the target T1, CCT4 (Homo sapiens, UniProt P50991).
T1 sequence (P50991 1-539): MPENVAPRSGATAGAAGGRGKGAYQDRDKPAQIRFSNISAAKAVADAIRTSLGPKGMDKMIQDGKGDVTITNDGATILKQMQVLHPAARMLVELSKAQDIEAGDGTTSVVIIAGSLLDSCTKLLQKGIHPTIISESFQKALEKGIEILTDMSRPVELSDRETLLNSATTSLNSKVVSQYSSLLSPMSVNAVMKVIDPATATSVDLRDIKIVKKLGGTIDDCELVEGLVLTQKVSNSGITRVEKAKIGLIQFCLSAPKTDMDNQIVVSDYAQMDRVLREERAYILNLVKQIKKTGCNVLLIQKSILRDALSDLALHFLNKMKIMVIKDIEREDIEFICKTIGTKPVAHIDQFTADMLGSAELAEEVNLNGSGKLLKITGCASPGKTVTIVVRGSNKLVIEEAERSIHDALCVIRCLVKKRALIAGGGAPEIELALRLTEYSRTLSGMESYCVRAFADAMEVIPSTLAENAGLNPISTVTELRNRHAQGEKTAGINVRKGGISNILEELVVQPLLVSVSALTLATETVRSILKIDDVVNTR
Kind of test: c-ponatinib pulldown LC-MS/MS. The test is classed as binding. In outline:
as §1

In the case of `Cc1ccc(C(=O)Nc2ccc(CN3CCN(CCCN)CC3)c(C(F)(F)F)c2)cc1C#Cc1cnc2cccnn12` [c-ponatinib], on LCK (+ free ponatinib), the “Av. SC comp.” value is recorded as 0.75 and the “Total SC comp.” value stood at 3. Also, at LCK (no competitor), the “Av. SC” value was found to be 98.5 and the “Total SC” value is 394. Also, at CCT4 (+ free ponatinib), the “Av. SC comp.” value was determined as 0 and the “Total SC comp.” value is recorded as 0. Further, at CCT4 (no competitor), the “Av. SC” value came to 3.5 and the “Total SC” value was 14.
